One assay has as its system R992C Col2a1 SEDC mice. Nature of the assay: TUNEL assay of chondrocyte apoptosis in the tibial growth plate of SEDC mice. It is filed as in vivo. The conditions noted are these: single treated mouse, no quantitative analysis. How it is done:
The effect of CBZ on p.R992C Col2a1 mutant mice (spondyloepiphyseal dysplasia congenital (SEDC) model mice) was tested.
R992C Col2a1 SEDC mice were treated with carbamazepine (CBZ), to determine whether treatment ameliorates the disease phenotype. Increased chondrocyte apoptosis within the epiphyseal growth plate is associated with the onset of disease from 3 weeks in mouse models expressing this mutant form of COL2A1.
Chondrocyte apoptosis was detected by a Terminal deoxynucleotide transferase dUTP nick end labelling (TUNEL) assay. Tibial growth plates from wild type and SEDC mutant mice were stained according to the manufactures instructions before being imaged (data not shown).

The subject of a further assay is mutant collagen X. Briefly: Western blot of intracellular mutant collagen X protein, with proteasome or lysosome inhibitors. In kind it is cell-based. How it is done:
FIG. 1 illustrates the effects of carbamazepine treatment on ER stress induced by four different MCDS-causing mutations in collagen X; (a) BiP, b) CHOP c) spliced XBP1 mRNA level in cells transiently expressing one of four mutant collagen X constructs and treated for 24 hours with Carbamazepine (CBZ) (20 μM). Quantitation is relative to actin mRNA levels. Mean±SEM. (d) Western blot showing intracellular collagen X protein levels with and without 24 hours CBZ treatment. Quantification of three independent experiments shown in (e). (f) Western blot for N617K collagen X collagen X protein levels in the presence of CBZ for either 0 or 24 hours. […] Quantification of three independent experiments relative to GAPDH and standardised against the protein level in the 16 h untreated timepoint is shown in (h) and (i). […]
FIG. 6 illustrates the degradation route of mutant collagen X proteins Western blot for (a) G618V or (c) Y598D collagen X protein levels in the presence of CBZ for either 0 or 24 hours. […] Quantification of three independent experiments relative to GAPDH and standardised against the protein level in the 16 h untreated timepoint is shown in (b) and (d). […]
Protein was extracted from cells 24 hours post-transfection. […] The resulting supernatant was transferred to a fresh tube and protein concentration determined using a Pierce bicinchoninic acid (BCA) protein assay. […]
For orientation: In western blotting, separated proteins are transferred to a membrane and probed.

In assay [1] the test system is cells expressing wild-type (WT) or N617K collagen X. Nature of the assay: General protein synthesis rates in cells expressing collagen X. It is filed as cell-based. The following applies: CBZ for 24 hours. As for the experimental part:
FIG. 5 illustrates the effect of CBZ treatment in vitro (a) Cell viability of cell treated with 20 μM CBZ. (b) Collagen X mRNA level of HeLa cells transiently transfected with a rang of collagen X mutations in the presence or absence of CBZ for 24 hours. (c) General protein synthesis rates of cells expressing wild-type (WT) or N617K collagen X and treated with CBZ for 24 hours. UTF=untransfected cell controls. Mean±SEM of three independent experiments in each case.

Assay [2] deals with Cells carrying a COL4A2 missense mutation. Nature of the assay: BIP and ATF6 expression and protein in cells carrying a COL4A2 missense mutation. The conditions noted are these: 50 μM CBZ, data not shown. In kind it is cell-based. How it is done: Cells carrying a COL4A2 missense mutation (which causes haemorrhagic stroke) are treated with 50 μM CBZ. After treatment expression of BIP and ATF 6 are determined by qPCR and mRNA analysis and levels of BIP and ATF6 protein are determined by SDS-PAGE and western blot analysis as previously described herein.

The structures appear in SMILES notation.

Take `NC(=O)N1c2ccccc2C=Cc2ccccc21` [CBZ, Carbamazepine]: the “level of apoptosis in tibial growth plate chondrocytes (TUNEL)” value with R992C Col2a1 SEDC mice is “did not necessarily reduce”. Also, the “degradation rates of mutant collagen X proteins” value in the assay on mutant collagen X (each of 4 mutant collagen X proteins, PSII or chloroquine for the final 8 hours) is “enhanced the degradation rates”. Further, in the assay with mutant collagen X (each of 4 mutations, 24 hours CBZ treatment), the “intracellular levels of mutant collagen X protein” value is on record as “significant reductions”. The “rates of general protein synthesis” value in assay [1] is recorded as “did not affect”. In addition, in assay [2] (qPCR), the ATF6 expression entry is recorded as “decreased level” and the BIP expression entry is “decreased level”. In assay [2] (western blot), the ATF6 protein level result is “decreased level” and the BIP protein level entry is reported as “decreased level”.

The record behind these values is patent US20190076440A1, “TREATMENT OF TISSUE DISORDERS” (priority 2016, published 2019).
